The source of these data is US8044198B2, “Sirtuin modulating compounds” (Sirtris Pharmaceuticals, Inc., priority 2005, dated 2011).

The assay deals with T1, SIRT1 (Homo sapiens, UniProt Q96EB6).
T1 sequence (Q96EB6 1-747): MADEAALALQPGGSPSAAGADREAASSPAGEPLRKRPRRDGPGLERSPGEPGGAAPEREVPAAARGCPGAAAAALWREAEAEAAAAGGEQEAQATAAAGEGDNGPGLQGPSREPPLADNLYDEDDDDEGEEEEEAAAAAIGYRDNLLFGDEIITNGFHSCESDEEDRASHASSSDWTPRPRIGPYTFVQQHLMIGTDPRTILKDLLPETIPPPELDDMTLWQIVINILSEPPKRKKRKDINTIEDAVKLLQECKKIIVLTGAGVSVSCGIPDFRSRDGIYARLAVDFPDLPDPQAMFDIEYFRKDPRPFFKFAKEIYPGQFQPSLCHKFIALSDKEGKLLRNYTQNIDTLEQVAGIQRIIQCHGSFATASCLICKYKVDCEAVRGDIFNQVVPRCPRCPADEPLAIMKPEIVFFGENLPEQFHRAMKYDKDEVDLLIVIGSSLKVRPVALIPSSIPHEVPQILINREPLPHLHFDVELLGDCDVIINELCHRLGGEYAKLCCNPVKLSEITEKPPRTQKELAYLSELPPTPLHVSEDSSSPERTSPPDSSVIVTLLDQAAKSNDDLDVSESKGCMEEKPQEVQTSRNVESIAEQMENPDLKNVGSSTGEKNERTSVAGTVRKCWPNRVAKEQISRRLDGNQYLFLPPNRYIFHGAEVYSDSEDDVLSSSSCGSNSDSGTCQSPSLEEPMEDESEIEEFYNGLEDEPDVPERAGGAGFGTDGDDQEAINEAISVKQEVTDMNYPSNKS
Kind of assay: SIRT1 mass spectrometry (MS) based deacetylation assay. For FOLD ACT. MS: test concentration or dose not given here. The format is biochemical. The conditions noted are these: for EC50: mass spectrometry assay, read-out: ED50 MS ASSAY.

Setting [1] is: fold activation of SIRT1 as determined by MS.
[2] abbreviates: fold activation of SIRT1, mass spectrometry assay.
[3] abbreviates: SIRT1 fold activation as determined by MS.
The mark [4] stands for this setting: Sirt1 activators, fold activation as determined by MS.

Molecules are shown by their SMILES. Read-outs that look alike come from different tables or passages of the source.

For `COc1ccc(C(=O)Nc2cccc(-c3cn4ccc(C)cc4n3)c2)cc1` [Compound 130], the EC50 (SIRT1 activation) lay within 5 to 50 µM. Further, the “FOLD ACT. MS” value under setting [1] is on record as “B (B (Fold Activation <250%))”.

With `Cc1cc(C(=O)Nc2cccc(-c3nc4ccncc4s3)c2)no1` [Compound 304], the EC50 (SIRT1 activation) is < 5 µM. In addition, the “FOLD ACT. MS” value under setting [2] is recorded as “B (B (Fold Activation <250%))”. For the compound `O=C(Nc1ccccc1-c1nc2cc(CN3CCNCC3)cnc2s1)c1cccc(C(F)(F)F)c1` [Compound 731], the EC50 (SIRT1 activation) fell in the range of 5 to 50 µM. Under setting [3], the “FOLD ACT. MS” value is reported as “A (A (Fold activation >250%))”. Consider `CC(Oc1ccccc1)C(=O)Nc1ccccc1-c1nc2ccncc2s1` (centres unmarked) [Compound 463], for which the EC50 (Sirt1 activators) was 5 to 50 µM. With `O=C(Nc1ccccc1-c1cn2c(CN3CCSC3)csc2n1)c1cnc2ccccc2n1` [Compound 715], the EC50 (SIRT1 activation) was < 5 µM. The “FOLD ACT. MS” value under setting [3] was “B (B (Fold Activation <250%))”. Turning to `Cc1cc(C)cc(C(=O)Nc2cc(-c3nc4ncccc4o3)ccn2)c1` [Compound 468], the “FOLD ACT. MS” value under setting [4] was “B (B (Fold Activation <250%))”. Moreover, the EC50 (Sirt1 activators) lay in the range of 5 to 50 µM. The corresponding values for `COc1ccc(NC(=S)Nc2cc(-c3nc4ncccc4o3)ccn2)cc1OC` [Compound 660] are “B (B (Fold Activation <250%))” and 5 to 50 µM.

`COc1ccc(C(=O)Nc2sccc2-c2nc3ccccc3s2)cc1OC` [Compound 145]: the EC50 (SIRT1 activation) is < 5 µM. Further, the “FOLD ACT. MS” value under setting [1] is on record as “B (B (Fold Activation <250%))”.

On to `O=C(Nc1cccc(-c2nc3ccncc3s2)c1)c1cccnc1Cl` [Compound 222], for which, under “SIRT1 activation”, the EC50 lay in the range of 5 to 50 µM. Under setting [2], the “FOLD ACT. MS” value was “B (B (Fold Activation <250%))”. Consider `O=C(Nc1ccccc1-c1cn2c(CN3CCSCC3)csc2n1)c1cnc2ccccc2n1` [Compound 742], for which, under “SIRT1 activation”, the EC50 was < 5 µM. Also, the “FOLD ACT. MS” value under setting [3] is “B (B (Fold Activation <250%))”.

On to `O=C1CN(Cc2csc3nc(-c4ccccc4NC(=O)c4cnc5ccccc5n4)cn23)CCN1` [Compound 677], for which the “FOLD ACT. MS” value under setting [4] is “A (A (Fold activation >250%))”. The EC50 (Sirt1 activators) is < 5 µM. For `COc1ccc(C(=O)Nc2cccc(-c3nc4ccncc4s3)c2)cc1OC` [Compound 114], the EC50 (SIRT1 activation) is < 5 µM. Further, the “FOLD ACT. MS” value under setting [1] was “A (A (Fold activation >250%))”. Taken in the same sequence, the figures for `COc1cc(C)ccc1C(=O)Nc1cccc(-c2nc3cccnc3[nH]2)c1` [Compound 182] were < 5 µM and “A (A (Fold activation >250%))”. With `Cc1cc(C(=O)Nc2cccc(-c3nc4ccncc4s3)c2)n(C(C)(C)C)n1` [Compound 228], under “SIRT1 activation”, the EC50 lay in the range of 5 to 50 µM. Under setting [2], the “FOLD ACT. MS” value is listed as “A (A (Fold activation >250%))”. As to `COc1ccc(C(=O)Nc2cc(CN3CCNCC3)cc(-c3nc4ncccc4o3)c2)c(OC)c1` [Compound 161], for the setting “SIRT1 activation”, the EC50 fell in the range of 5 to 50 µM. Also, the “FOLD ACT. MS” value under setting [1] is “A (A (Fold activation >250%))”. As to `COc1cc(C)ccc1C(=O)Nc1ccccc1-c1nc2cccnc2[nH]1` [Compound 523], the “FOLD ACT. MS” value under setting [4] is recorded as “B (B (Fold Activation <250%))”. Also, where the note is “Sirt1 activators”, the EC50 fell in the range of 5 to 50 µM.

On to `O=C(Nc1ccccc1-c1cn2c(CNCC(O)CO)csc2n1)c1cnc2ccccc2n1` (centres unmarked) [Compound 676], for which the “FOLD ACT. MS” value under setting [4] is reported as “A (A (Fold activation >250%))”. Moreover, the EC50 (Sirt1 activators) is < 5 µM. `O=C(Nc1ccccc1-c1cn2c(CN3CCC(F)CC3)csc2n1)c1cnc2ccccc2n1` [Compound 714]: for the setting “SIRT1 activation”, the EC50 lay in the range of 5 to 50 µM. Under setting [3], the “FOLD ACT. MS” value is “B (B (Fold Activation <250%))”.

Regarding `COc1cc(OC)cc(C(=O)Nc2ccc(-c3nc4ccncc4o3)s2)c1` [Compound 562], the “FOLD ACT. MS” value under setting [4] is reported as “B (B (Fold Activation <250%))”. Moreover, under “Sirt1 activators”, the EC50 was < 5 µM. Regarding `COc1cc(C(=O)Nc2ccccc2-c2nc3ccncc3s2)cc(OC)c1OC` [Compound 163], where the note is “SIRT1 activation”, the EC50 is < 5 µM. Besides, the “FOLD ACT. MS” value under setting [1] is on record as “B (B (Fold Activation <250%))”. Consider `c1ccc2oc(N3CCCN(c4nc5ccccc5o4)CC3)nc2c1` [Compound 85], for which the EC50 (SIRT1 activation) is > 150 µM. With `COc1cc(C(=O)Nc2ccccc2-c2cn3c(CN4CCNCC4)csc3n2)cc(OC)c1OC` [Compound 208], the EC50 (SIRT1 activation) fell in the range of 5 to 50 µM. Also, the “FOLD ACT. MS” value under setting [1] is “A (A (Fold activation >250%))”.

With `O=C(Nc1cccc(-c2nc3ncccc3o2)c1)c1ccccc1N1CCOCC1` [Compound 109], the EC50 (SIRT1 activation) was in the range of 5 to 50 µM. For the same compound, under setting [1], the “FOLD ACT. MS” value is “B (B (Fold Activation <250%))”. Consider `CN(C)c1ccc(C(=O)Nc2cccc(-c3nc4cnccc4o3)c2)cc1` [Compound 299], for which the EC50 (SIRT1 activation) fell in the range of 5 to 50 µM. Moreover, the “FOLD ACT. MS” value under setting [2] was “B (B (Fold Activation <250%))”.

In the case of `COc1cc(C(=O)Nc2ccccc2-c2cn3cccnc3n2)cc(OC)c1OC` [Compound 439], the EC50 (SIRT1 activation) is < 5 µM. Moreover, under setting [2], the “FOLD ACT. MS” value is “B (B (Fold Activation <250%))”. Turning to `O=C(Nc1ccccc1-c1cn2c(CN3CCNCC3)csc2n1)c1cc(F)cc(F)c1` [Compound 695], the EC50 (SIRT1 activation) is < 5 µM. Also, the “FOLD ACT. MS” value under setting [3] is reported as “A (A (Fold activation >250%))”. With `COc1ccc(C(=O)Nc2ccc(-c3nc4cccnc4[nH]3)cc2)c(OC)c1OC` [Compound 148], the EC50 (SIRT1 activation) is > 150 µM. On to `COc1cc(C(=O)Nc2cc(-c3nc4ncccc4o3)ccn2)ccc1CN1CCCCC1` [Compound 571], for which, under setting [4], the “FOLD ACT. MS” value is given as “B (B (Fold Activation <250%))”. The EC50 (Sirt1 activators) was 5 to 50 µM. Taken in the same sequence, the figures for `Cc1ccc(C(=O)Nc2ccccc2-c2nc3cc(CN4CCNCC4)cnc3s2)cc1C` [Compound 591] were “A (A (Fold activation >250%))” and < 5 µM.

Turning to `COc1ccc(C(=O)Nc2cccc(-c3csc(C)n3)c2)c(OC)c1` [Compound 81], the EC50 (SIRT1 activation) lay within 5 to 50 µM. The “FOLD ACT. MS” value under setting [1] is reported as “B (B (Fold Activation <250%))”.

As for `COc1cc(C(=O)Nc2ccc(-c3nc4cnccc4o3)cc2)cc(OC)c1OC` [Compound 347], the EC50 (SIRT1 activation) is < 5 µM. The “FOLD ACT. MS” value under setting [2] is on record as “B (B (Fold Activation <250%))”. Take `O=C(Nc1ccccc1-c1cn2c(CN3CCNCC3)csc2n1)c1cc2ccccc2o1` [Compound 624]: the “FOLD ACT. MS” value under setting [4] is reported as “A (A (Fold activation >250%))”. Moreover, the EC50 (Sirt1 activators) was < 5 µM. `COc1cccc(C(=O)Nc2ccccc2-c2cn3c(CN4CCNCC4)csc3n2)c1` [Compound 738]: the EC50 (SIRT1 activation) was in the range of 5 to 50 µM. Besides, the “FOLD ACT. MS” value under setting [3] is listed as “A (A (Fold activation >250%))”. `CN(C)c1cccc(C(=O)Nc2cccc(-c3nc4cccnc4o3)c2)c1` [Compound 111]: where the note is “SIRT1 activation”, the EC50 is 5 to 50 µM. The “FOLD ACT. MS” value under setting [1] is listed as “B (B (Fold Activation <250%))”. `COc1ccccc1C(=O)Nc1cccc(-c2cn3ccsc3n2)c1` [Compound 132]: under “SIRT1 activation”, the EC50 lay within 5 to 50 µM. For the same compound, the “FOLD ACT. MS” value under setting [1] is given as “A (A (Fold activation >250%))”. Turning to `CN(C)c1cccc(C(=O)Nc2ccccc2-c2nc3cccnc3[nH]2)c1` [Compound 524], under setting [4], the “FOLD ACT. MS” value is on record as “B (B (Fold Activation <250%))”. The EC50 (Sirt1 activators) was < 5 µM.

Consider `COc1cc(C(=O)Nc2cc(CN(C)C)cc(-c3nc4ccncc4s3)c2)cc(OC)c1OC` [Compound 174], for which the EC50 (SIRT1 activation) fell in the range of 51 to 100 µM. The “FOLD ACT. MS” value under setting [1] is recorded as “A (A (Fold activation >250%))”.

For `O=C(Nc1ccccc1-c1nc2ccncc2s1)c1cc(C(F)(F)F)ccc1C(F)(F)F` [Compound 596], the EC50 (Sirt1 activators) is < 5 µM. In the case of `CN(C)c1cccc(C(=O)Nc2cccc(-c3nc4nc(CN5CCNCC5)ccc4o3)c2)c1` [Compound 166, 3-dimethylamino-N-[3-(5-piperazin-1-ylmethyl-oxazolo[4,5-b]pyridin-2-yl)-phenyl]-benzamide], the EC50 (SIRT1 activation) was 5 to 50 µM. The “FOLD ACT. MS” value under setting [1] is “B (B (Fold Activation <250%))”. The corresponding values for `COc1ccc(C(=O)Nc2ccccc2-c2cn3c(CN(C)C)csc3n2)cc1OC` [Compound 205] are 5 to 50 µM and “A (A (Fold activation >250%))”.

On to `CN(C)c1cccc(C(=O)Nc2cc(CN3CCNCC3)cc(-c3nc4ncccc4o3)c2)c1` [Compound 160], for which, under “SIRT1 activation”, the EC50 lay within 51 to 100 µM. For the same compound, the “FOLD ACT. MS” value under setting [1] was “A (A (Fold activation >250%))”. For `COc1cc(OC)cc(C(=O)Nc2ccccc2-c2nc3cnccc3s2)c1` [Compound 318], where the note is “SIRT1 activation”, the EC50 lay in the range of 5 to 50 µM. Further, the “FOLD ACT. MS” value under setting [2] is “B (B (Fold Activation <250%))”. The corresponding values for `COc1ccc(C(=O)Nc2ccccc2-c2cn3ccccc3n2)c(OC)c1` [Compound 265] are 5 to 50 µM and “B (B (Fold Activation <250%))”. As to `COc1cc(C(=O)Nc2cccc(-c3nc4cccnc4s3)c2)cc(OC)c1OC` [Compound 217], the EC50 (SIRT1 activation) was < 5 µM. Also, the “FOLD ACT. MS” value under setting [1] is “A (A (Fold activation >250%))”. On to `COc1ccc(C(=O)Nc2cccc(-c3cccnc3)c2)cc1OC` [Compound 332], for which the EC50 (SIRT1 activation) was 5 to 50 µM. Besides, the “FOLD ACT. MS” value under setting [2] was “B (B (Fold Activation <250%))”.
